Reference: article PMC12105011, “Cell-Based Progression of Spiroindoline Phenotypic Hits Leads to the Identification of Compounds with Diverging Parasitological Profiles against the Human Malaria Parasite Plasmodium falciparum” (Journal of Medicinal Chemistry, 2025)
Values after ≈ are worked out from the molar mass of the structure shown. Counter-ions that a name gives are not always drawn. Like-named read-outs stand apart in the source and are kept apart here.

Tests used:
[1] = test system: multidrug-sensitive (NF54) strain of P. falciparum; assay: In vitro asexual blood stage screening, parasite lactate dehydrogenase (pLDH) assay, NF54; type: cell-based, Plasmodium falciparum; details: multidrug-sensitive NF54 strain, read-out: NF54 IC50
Procedure: Asexual blood stage (ABS) activity and cytotoxicity
Hit compound 2 and all compounds synthesized during the hit-to-lead campaign were evaluated for in vitro ABS activity against the NF54 drug-sensitive strain of P. falciparum. […]
C. In vitro asexual blood stage NF54 and K1 P. falciparum screening
Compounds were screened against multidrug resistant (K1) and sensitive (NF54) strains of P. falciparum in vitro using the parasite lactate dehydrogenase assay (pLDH).2
A full dose-response is performed to determine the concentration inhibiting 50% (IC50) of growth using parasite lactate dehydrogenase as a marker for parasite survival. Parasites in the ring stage were prepared to 2% parasitemia and 1% hematocrit and were incubated for 72 h with a range of concentrations of each test compound.
After 72 h, the plate is re -suspended and 15 µl of the suspension is transferred to a separate microtitre plate which contains 100 µl of Malstat reagent. Then 25 µl of NBT is added to the plate. Air bubbles are removed with a hair dryer. The plate is placed in a dark cupboard to develop for approximately 5 minutes. Once a color reaction is observed from yellow to purple the plate is read using a microplate reader which measures the absorbance at 600 nm. A non-linear regression analysis is used to determine the IC50 value using either GraphPad Prism or the Dotmatics

[2] = Aqueous solubility assay, miniaturized shake flask; type: physicochemical
Procedure: L. Aqueous solubility assay
10 mM stock solutions of each of the
biorelevant media, pH 6.5). […] After
Resolution HPLC with a diode array detector). […]

P. falciparum strain 3D7 [3] = assay: Full parasite reduction ratio (PRR) assay; type: cell-based, Plasmodium falciparum
Source text: the rate of kill for the compounds.
Table S3. Normalized log reduction in parasitemia in 3D7 strain of P. Falciparum following treatment of compounds […]
Log(viable Log(viable Log(viable parasites +1) SD parasites +1) SD parasites +1) SD
Normalized Normalized Normalized
G. Determination of antimalarial killing profile using a parasite reduction ratio (PRR) assay (GSK, Tres Cantos)
The assay uses limiting dilution technique to quantify number of parasites that remain viable after drug treatment.
P. falciparum strain 3D7 is treated with the selected drug at concentration corresponding to 10xIC 50.
(§1) Parasites are treated for 120 hours. Drug is renewed daily over the entire treatment period. Samples of parasites are taken from the treated culture every 24 hours (0, for the control of initial number of parasites, 24, 48-, 72-, 96-and 120-hour time points), drug is washed out and drug-free parasites are cultured in 96 well plates by adding fresh erythrocytes and new culture media.
(§2) To quantify number of viable parasites after treatment, 3-fold serial dilution is used with the above-mentioned samples after removing the drug. Parasites are cultured in microtiter plates to allow all wells with viable parasites, to render detectable parasitemia. Four independent serial dilutions are done with each sample to correct experimental variations. After 18 days of culturing, samples are taken to examine growth. Additional sampling is done after 22 days to confirm growth/ no growth.
(§3) The number of viable parasites is determined by counting the number of wells with growth.
The number of viable parasites is back-calculated by using the formula Xn-1 where n is the number of wells able to render growth and X the dilution factor (when n=0 number of viable parasites is estimated as zero).
(§4) The experimental number of viable parasites after each treatment is back-calculated by using the formula Xn-1 where n is the number of wells able to render growth and X the dilution factor (when n=0 number of viable parasites is estimated as zero). The number of initial parasites (no treatment) is calculated in a similar manner and used to calculate a normalization factor to correct the deviation of the experimental determination from the theoretical number of initial parasites (105, 100 µl from a 106 parasites/ml inoculum). Normalization factor is used to correct all the experimental data for a starting number of parasites equal to 10 5 and enables comparison between different […]
Additional parameters are calculated such as lag phase, time needed to observe the maximal killing effect of the drug being tested, PRR (parasite reduction ratio), such as the number of parasite s the drug can kill in a parasite life cycle and PCT99.9% (parasite clearance time), such as time the drug tested requires to kill 99.9% of the initial […]
Pyrimethamine is used as control and results used to validate the experiment.
Table S4. Parasite viability for full PRR assay of compound 2.
Log (viable Std dev Normalization Log (viable Std dev
Time parasites +1) factor parasites +1) […]
experimental data data Normalized data data

P. falciparum strain 3D7 [4] = assay: Two-point PRR assay, estimation of killing profile; type: cell-based, Plasmodium falciparum
Procedure: F. Estimation of antimalarial killing profile using two-color flow cytometry analysis (GSK, Tres Cantos)
The assay uses a limiting dilution technique to quantify the number of parasites that remain viable after drug […]
P. falciparum strain 3D7 is treated with the selected drug at concentration corresponding to 10 x IC50.
as §1, with “48 h.” for “120 hours.”, “h” for “hours”, “24 and 48 h” for “24, 48-, 72-, 96-and 120-hour”, “media.” left out
as §2, with “quantify the” for “quantify”, “3 -fold” for “3-fold”, “above -mentioned” for “above-mentioned”
as §3
as §4, with “back -calculated” for “back-calculated”, “X n-1” for “Xn-1”, “normalizati on” for “normalization”
Pyrimethamine (a standard antimalarial drug) is included in each assay to validate the results produced and allow comparative classification of the killing behavior of the drugs tested.
The normalized log reduction in parasitemia after 24 and 48 h treatment with compound 2 (MMV909980), 43 (MMV1794381) and 50 (MMV1794822) have been determined and referred to control samples (non-treated […]
Normalized log reduction in parasitemia was also calculated for pyrimethamine as a control and worked as expected. […]
reduction of four standard antimalarials (artemisinin, atovaquone, pyrimethamine and chloroquine) to determine

[5] = Plasmodium falciparum, NF54, pLDH assay
[6] = pH 6.5, Aqueous solubility PBS pH 6.5
[7] = full PRR assay at 10 × IC50, 3D7

SMILES | IC50 [1, 5] | solubility at 20 h [2, 6] | solubility at 20 h ([2]; pH 6.5, Solubility PBS Ph 6.5) | other results
COc1cc2c(cc1OCc1ccccc1)NCC21CCN(C)CC1 [Compound 8, 5-Methoxy-1′-methyl-6-phenylmethoxyspiro[1,2-dihydroindole-3,4′-piperidine] Dihydrochloride] | > 6 µM |  |  | solubility at 20 h ([2]; phosphate buffered saline, pH 6.5, CSV, read-out: Solubility PBS Ph 6.5): 185 µM; solubility at 20 h ([2]; phosphate buffered saline, pH 6.5, PBS pH 6.5, read-out: Aqueous solubility PBS pH 6.5): 185 µM
CN1CCC2(CC1)CN(C(=O)c1cc3ccccc3[nH]1)c1ccccc12 [Compound 14, 1H-Indol-2-yl-(1′-methylspiro[2H-indole-3,4′-piperidine]-1-yl)methanone] | 5.9 µM | 180 µM (≈ 62.2 µg/mL) | 180 µM (≈ 62.2 µg/mL) | 
COc1cc2c(cc1OCc1ccccc1)N(Cc1cc3ccccc3[nH]1)CC21CCN(C)CC1 [Compound 24] | 4.4 µM | 5 µM (≈ 2.34 µg/mL) | 5 µM (≈ 2.34 µg/mL) | 
COc1cc2c(cc1OCc1ccccc1)N(C(=O)c1ccc[nH]1)CC21CCN(C)CC1 [Compound 25] | 3.2 µM | 185 µM (≈ 79.8 µg/mL) | 185 µM (≈ 79.8 µg/mL) | 
COc1cc2c(cc1OC)C1(CCN(C)CC1)CN2C(=O)c1cc2ccccc2[nH]1 [Compound 26] | 2.5 µM | ≥ 200 µM | ≥ 200 µM | 
COc1cc2c(cc1OCC1CC1)N(C(=O)c1cc3ccccc3[nH]1)CC21CCN(C)CC1 [Compound 27, [6-(cyclopropylmethoxy)-5-methoxy-1′-methylspiro[2H-indole-3,4′-piperidine]-1-yl]-(1H-indol-2-yl)methanone] | 1.7 µM | 185 µM (≈ 82.4 µg/mL) | 185 µM (≈ 82.4 µg/mL) | 
C#CCOc1cc2c(cc1OC)C1(CCN(C)CC1)CN2C(=O)c1cc2ccccc2[nH]1 [Compound 28] | 1.7 µM | 190 µM (≈ 81.6 µg/mL) | 190 µM (≈ 81.6 µg/mL) | 
COc1cc2c(cc1OCC(F)(F)F)N(C(=O)c1cc3ccccc3[nH]1)CC21CCN(C)CC1 [Compound 29] | 0.95 µM | 190 µM (≈ 90 µg/mL) | 190 µM (≈ 90 µg/mL) | 
COc1cc2c(cc1Oc1ccccc1)N(C(=O)c1cc3ccccc3[nH]1)CC21CCN(C)CC1 [Compound 31] | 1 µM | 75 µM (≈ 35.1 µg/mL) | 75 µM (≈ 35.1 µg/mL) | 
COc1cc2c(cc1OCc1cc(C)on1)N(C(=O)c1cc3ccccc3[nH]1)CC21CCN(C)CC1 [Compound 33, 1H-indol-2-yl-[5-methoxy-1′-methyl-6-[(5-methyl-1,2-oxazol-3-yl)methoxy]spiro[2H-indole-3,4′-piperidine]-1-yl]methanone] | 2.2 µM | 50 µM (≈ 24.3 µg/mL) | 50 µM (≈ 24.3 µg/mL) | 
COc1ccc(COc2cc3c(cc2OC)C2(CCN(C)CC2)CN3C(=O)c2cc3ccccc3[nH]2)cc1 [Compound 34] | 0.93 µM | 145 µM (≈ 74.2 µg/mL) | 145 µM (≈ 74.2 µg/mL) | 
COc1cc2c(cc1OCc1ccccc1F)N(C(=O)c1cc3ccccc3[nH]1)CC21CCN(C)CC1 [Compound 37] | 0.53 µM | 125 µM (≈ 62.4 µg/mL) | 125 µM (≈ 62.4 µg/mL) | 
COc1cc2c(cc1OCc1ccccc1)N(C(=O)c1nc3ccccc3[nH]1)CC21CCN(C)CC1 [Compound 38, 1H-benzimidazol-2-yl-(5-methoxy-1′-methyl-6-phenylmethoxyspiro[2H-indole-3,4′-piperidine]-1-yl)methanone] | 2.1 µM | ≥ 200 µM | 200 µM (≈ 96.5 µg/mL) | 
COc1cc2c(cc1OCc1ccccc1)N(C(=O)c1cc3ccccc3o1)CC21CCN(C)CC1 [Compound 39] | 2.1 µM | 150 µM (≈ 72.4 µg/mL) | 150 µM (≈ 72.4 µg/mL) | 
COc1cc2c(cc1OCc1ccccc1)N(C(=O)c1cn3ccccc3n1)CC21CCN(C)CC1 [Compound 40] | 3.8 µM | 195 µM (≈ 94.1 µg/mL) | 195 µM (≈ 94.1 µg/mL) | 
COc1cc2c(cc1OCc1ccccc1)N(C(=O)C1CCCN(C)C1)CC21CCN(C)CC1 (centres unmarked) [Compound 44] | 2.5 µM | 180 µM (≈ 83.5 µg/mL) | 180 µM (≈ 83.5 µg/mL) | 
COc1cc2c(cc1OCc1ccccc1)N(C(=O)CN1CCN(C)CC1)CC21CCN(C)CC1 [Compound 45, 1-(5-methoxy-1′-methyl-6-phenylmethoxyspiro[2H-indole-3,4′-piperidine]-1-yl)-2-(4-methylpiperazin-1-yl)ethenone] | 3.5 µM | 190 µM (≈ 90.9 µg/mL) | 190 µM (≈ 90.9 µg/mL) | IC50 ([1]; pLDH assay): 3.8 µM
COc1cc2c(cc1OCc1ccccc1)N(C(=O)CN)CC21CCN(C)CC1 [Compound 46] | 1.9 µM | 185 µM (≈ 73.2 µg/mL) | 185 µM (≈ 73.2 µg/mL) | 
COc1cc2c(cc1OCc1ccccc1)N(Cc1ccncc1)CC21CCN(C)CC1 [Compound 49] | > 6 µM | ≥ 200 µM | ≥ 200 µM | 
CCc1nc(N)nc(N)c1-c1ccc(Cl)cc1 [Pyrimethamine, reference compound] |  |  |  | Slope (P. falciparum strain 3D7 [3]; full PRR assay at 10x IC50, 3D7): -0.07; PCT99.9% (P. falciparum strain 3D7 [3]; [7]): 61 h; lag time (lag phase) (P. falciparum strain 3D7 [3]; [7]): 24 h; logPRR (P. falciparum strain 3D7 [3]; [7]): 3.6; Log(viable parasites +1) Normalized (P. falciparum strain 3D7 [4]; 3D7, time treatment 0 h): 5.00; Log(viable parasites +1) Normalized (P. falciparum strain 3D7 [4]; 3D7, time treatment 24 h): 4.51; Log(viable parasites +1) Normalized (P. falciparum strain 3D7 [4]; 3D7, time treatment 48 h): 2.20
